In paper PMC4686731, “Screening of Pharmacologically Active Small Molecule Compounds Identifies Antifungal Agents Against Candida Biofilms” (Frontiers in Microbiology, 2015):
Values after ≈ are worked out from the molar mass of the structure shown. Where two headings read alike, the source gives them in different places.

Legend:
Candida strains = assay: AST, adhesion phase, all Candida strains; type: cell-based; conditions: all six strains
Procedure: (§1) The in vitro susceptibility of well-characterized wild-type C. albicans strain SC5314, which was provided by Prof. N.A.R. Gow (University of Aberdeen, Aberdeen, UK) was tested against 1280 compounds from the Library of Pharmacologically Active Compounds (LOPAC^1280TM, Sigma–Aldrich, USA). The screen was performed with C. albicans SC5314, and hits were further confirmed with the type strains C. dubliniensis MYA 577, C. glabrata ATCC 2001, C. kusei ATCC 6258, C. palapsilosis ATCC 22019, and C. tropicalis ATCC13803.
To investigate the antifungal effects of the hit compounds, ASTs were conducted using broth microdilution assays with high cell densities of the planktonic mode, adhesion phase and biofilm mode against Candida strains (C. albicans, C. dubliniensis, C. glabrata, C. kusei, C. palapsilosis, and C. tropicalis). First, high density cell (1 × 10^7 cells/mL) suspensions were added to the RPMI medium containing each hit compound (10–1000 μM) in 96-well plates and incubated at 37°C for 24 h. Next, the 50% minimum inhibitory concentrations (MICs) of high-density Candida planktonic cultures were determined using the CellTiter-Glo luminescent cell viability kit, as described above. The antifungal effects of the hit compounds were also evaluated in the adhesion phase and the biofilm mode, in the same manner as the planktonic mode. Candida biofilms were produced as described previously ([Jin et al., 2004]). In brief, Candida cells were grown on SDA at 37°C for 18 h. A loopful of the yeast culture was then inoculated into yeast nitrogen base (YNB) (Difco, USA) medium supplemented with 50 mM glucose. After overnight broth culture in a rotary shaker at 75 rpm, the cells were washed twice with 20 mL of PBS (pH 7.2, 0.1 M). The yeast cells were re-suspended in YNB supplemented with 100 mM glucose and adjusted to an optical density of 0.38 (1 × 10^7 cells/mL) at 520 nm. This standardized cell suspension was used immediately to form biofilms in the wells of 96-well polystyrene culture plates (Iwaki, Tokyo, Japan). […]

C. tropicalis ATCC13803 = assay: AST broth microdilution, high cell density planktonic mode; type: cell-based; conditions: Candida tropicalis, read-out: Minimum inhibitory concentration (MIC)
Procedure: as §1
(§2) To investigate the antifungal effects of the hit compounds, ASTs were conducted using broth microdilution assays with high cell densities of the planktonic mode, adhesion phase and biofilm mode against Candida strains (C. albicans, C. dubliniensis, C. glabrata, C. kusei, C. palapsilosis, and C. tropicalis). First, high density cell (1 × 10^7 cells/mL) suspensions were added to the RPMI medium containing each hit compound (10–1000 μM) in 96-well plates and incubated at 37°C for 24 h. Next, the 50% minimum inhibitory concentrations (MICs) of high-density Candida planktonic cultures were determined using the CellTiter-Glo luminescent cell viability kit, as described above. The antifungal effects of the hit compounds were also evaluated in the adhesion phase and the biofilm mode, in the same manner as the planktonic mode. Candida biofilms were produced as described previously ([Jin et al., 2004]). In brief, Candida cells were grown on SDA at 37°C for 18 h. A loopful of the yeast culture was then inoculated into yeast nitrogen base (YNB) (Difco, USA) medium supplemented with 50 mM glucose. After overnight broth culture in a rotary shaker at 75 rpm, the cells were washed twice with 20 mL of PBS (pH 7.2, 0.1 M). The yeast cells were re-suspended in YNB supplemented with 100 mM glucose and adjusted to an optical density of 0.38 (1 × 10^7 cells/mL) at 520 nm. This standardized cell suspension was used immediately to form biofilms in the wells of 96-well polystyrene culture plates (Iwaki, Tokyo, Japan). First, the cells were incubated for 90 min at 37°C in a shaker at 75 rpm to allow yeast adherence to the well surface (adhesion phase), before the medium was aspirated and each well was washed once with PBS to remove non-adherent cells. YNB containing 100 mM glucose was then pipetted into each well and the plate was incubated at 37°C in a shaker at 75 rpm for 24 h. Non-adherent cells were removed by pipetting and the biofilms were washed twice with PBS. Following this biofilm growth phase, microscopic examination of the cultures was performed to exclude contamination. These ASTs were repeated on three different occasions.

C. dubliniensis MYA 577 = assay: as above; type: cell-based; conditions: Candida dubliniensis, read-out: Minimum inhibitory concentration (MIC)
Procedure: as §1, §2

C. kusei ATCC 6258 = assay: as above; type: cell-based; conditions: 24 h, read-out: Minimum inhibitory concentration (MIC)
Procedure: as §1, §2

C. glabrata ATCC 2001 = assay: as above; type: cell-based; conditions: Nakaseomyces glabratus, read-out: Minimum inhibitory concentration (MIC)
Procedure: as §1, §2

[1] = tested on: C. palapsilosis ATCC 22019; assay: as above; type: cell-based; conditions: 24 h, read-out: Minimum inhibitory concentration (MIC)
Procedure: as §1, §2

C. albicans SC5314 = assay: as above; type: cell-based, Candida albicans; conditions: Candida albicans, SC5314, 24 h, read-out: Minimum inhibitory concentration (MIC)
Procedure: as §1, §2

[2] = tested on: C. dubliniensis MYA 577 biofilm; assay: AST, biofilm mode; type: cell-based; conditions: Candida dubliniensis, MYA577BIOFILM, read-out: Minimum inhibitory concentration (MIC)
Procedure: as §1, §2

[3] = tested on: C. kusei ATCC 6258 biofilm; assay: AST, biofilm mode; type: cell-based; conditions: read-out: Minimum inhibitory concentration (MIC)
Procedure: as §1, §2

[4] = tested on: C. glabrata ATCC 2001 biofilm; assay: AST, biofilm mode; type: cell-based; conditions: Nakaseomyces glabratus, read-out: Minimum inhibitory concentration (MIC)
Procedure: as §1, §2

[5] = tested on: C. tropicalis ATCC13803 biofilm; assay: AST, biofilm mode; type: cell-based; conditions: Candida tropicalis, read-out: Minimum inhibitory concentration (MIC)
Procedure: as §1, §2

[6] = tested on: C. albicans strain SC5314; assay: High-throughput screening (HTS) with antifungal susceptibility test, CellTiter-Glo ATP read-out; type: cell-based, Candida albicans; conditions: for inhibition at 10 µM: Candida albicans, SC5314, 24 h; for fungistatic or fungicidal effect on C. albicans: HTS; for percent inhibition of the metabolic activity (ATP level) of C. albicans: 10 µM
Procedure: as §1
High-Throughput Screening was conducted using ASTs, according to the standard Clinical and Laboratory Standard Institute (CLSI) method ([Watamoto et al., 2009]). Inocula from 24-h yeast cultures on Sabouraud’s dextrose agar (SDA) (Gibco, UK) were adjusted to a turbidity equivalent to a 0.5 McFarland standard at 520 nm using a spectrophotometer. The suspension was diluted further with RPMI 1640 medium (Gibco, UK) to yield an inoculum concentration of 0.5 × 10^3 to 2.5 × 10^3 cells/mL. C. albicans was incubated with small-molecule compounds (10 μM) from LOPAC^1280TM, which total volume was 150 μL, in 96-well plates at 37°C for 24 h to evaluate the antifungal effects. After incubation, the viability of the fungal cells was determined using the CellTiter-Glo luminescent cell viability kit (Promega, USA). The CellTiter-Glo reagent (150 μL) was added to the medium and incubated for 15 min at room temperature with shaking at 900 rpm. The luminescent signals were detected using a luminometer (GloMax Discover System, Promega, USA). The resulting signal intensity corresponds to ATP amounts and thus to the number of viable microbial cells upon drug exposure ([Stylianou et al., 2014]). In all 96-well plates, 100 and 0% growth controls were included as microbes plus dimethyl sulfoxide (0.1%) and microbes plus amphotericin B (100 μM), respectively. All assays were performed at least as two biological replicates in triplicate. The ATP level of C. albicans cells, which corresponded to the cell metabolic activity and viability, was calculated for each compound using the following equation (Figure 1A).
Percentageinhibition=100 × 1-{(experimental-positivecontrolaverage)/(negativecontrolaverage-positivecontrolaverage)}
Wells were scored as hits if the percentage inhibition was >50%. Hit compounds were evaluated further to assess their antifungal effects.

[7] = ATCC13803, 50% MIC, planktonic mode, 1 × 10^7 cells/mL, 24 h
[8] = MYA577, 50% MIC, planktonic mode, 1 × 10^7 cells/mL, 24 h
[9] = 50% MIC, planktonic mode, 1 × 10^7 cells/mL
[10] = ATCC2001, 50% MIC, planktonic mode, 1 × 10^7 cells/mL, 24 h
[11] = 50% MIC, planktonic mode, 1 × 10^7 cells/mL, 24 h
[12] = ATCC2001, biofilm mode (24 h biofilm)
[13] = ATCC13803, biofilm mode (24 h biofilm)
[14] = compound 10 μM, 0.5 × 10^3 to 2.5 × 10^3 cells/mL, 37°C, 24 h, read-out: percent inhibition of the metabolic activity (ATP level) of C. albicans
[15] = compound 10 μM, 0.5 × 10^3 to 2.5 × 10^3 cells/mL, 37°C, 24 h

SMILES | concentration that inhibited the metabolic activity of Candida strains (Candida strains) [µM] | MIC (C. tropicalis ATCC13803; [7]) [µM] | MIC (C. dubliniensis MYA 577; [8]) [µM] | MIC (C. kusei ATCC 6258; [9]) [µM] | MIC (C. glabrata ATCC 2001; [10]) [µM] | MIC [1, 9] [µM] | MIC (C. albicans SC5314; [11]) [µM] | MIC ([2]; biofilm mode (24 h biofilm)) [µM] | MIC ([3]; biofilm mode (24 h biofilm)) [µM] | MIC [4, 12] [µM] | MIC [5, 13] [µM] | inhibition at 10 µM [6, 14] [%] | fungistatic or fungicidal effect on C. albicans ([6]; compound 10 μM) | percent inhibition of the metabolic activity (ATP level) of C. albicans [6, 15] [%] | further results
Cc1ccc(S(=O)(=O)/C=C/C#N)cc1 [Bay11-7082] | < 31.3 | 7.8 (≈ 1.62 µg/mL) | 3.9 (≈ 0.808 µg/mL) | 3.9 (≈ 0.808 µg/mL) | 7.8 (≈ 1.62 µg/mL) | 3.9 (≈ 0.808 µg/mL) | 7.8 (≈ 1.62 µg/mL) | 31.3 (≈ 6.49 µg/mL) | 62.5 (≈ 13 µg/mL) | 62.5 (≈ 13 µg/mL) | 62.5 (≈ 13 µg/mL) | 100 | strong fungicidal effects | > 90 | 
CC(C)(C)c1ccc(S(=O)(=O)/C=C/C#N)cc1 [Bay11-7085] | < 31.3 | 3.9 (≈ 0.972 µg/mL) | 3.9 (≈ 0.972 µg/mL) | 3.9 (≈ 0.972 µg/mL) | 3.9 (≈ 0.972 µg/mL) | 3.9 (≈ 0.972 µg/mL) | 3.9 (≈ 0.972 µg/mL) | 62.5 (≈ 15.6 µg/mL) | 62.5 (≈ 15.6 µg/mL) | 62.5 (≈ 15.6 µg/mL) | 62.5 (≈ 15.6 µg/mL) | 100 | strong fungicidal effects | > 90 | 
Cc1c2ccncc2c(C)c2c1[nH]c1ccccc12 [Ellipticine] |  | 15.6 (≈ 3.84 µg/mL) | 3.9 (≈ 0.961 µg/mL) | 7.8 (≈ 1.92 µg/mL) | 7.8 (≈ 1.92 µg/mL) | 7.8 (≈ 1.92 µg/mL) | 7.8 (≈ 1.92 µg/mL) | 500 (≈ 123 µg/mL) | 250 (≈ 61.6 µg/mL) | 62.5 (≈ 15.4 µg/mL) | 250 (≈ 61.6 µg/mL) | 100 | strong fungicidal effects | > 90 | 
C[n+]1cc2c3c(ccc2c2ccc4cc5c(cc4c21)OCO5)OCO3 [Sanguinarine, Sanguinarine chloride hydrate] | < 15.6 |  |  |  |  |  |  |  |  |  |  |  | strong fungicidal effects | > 90 | MIC (C. tropicalis ATCC13803; ATCC13803, 24 h): < 1 µM; MIC (C. dubliniensis MYA 577; MYA577, 24 h): < 1 µM; MIC (C. kusei ATCC 6258): < 1 µM; MIC (C. glabrata ATCC 2001; ATCC2001, 24 h): < 1 µM; MIC [1]: < 1 µM; MIC (C. albicans SC5314): < 1 µM; MIC ([2]; 24 h): 15.6 µM; MIC ([3]; 24 h): 31.3 µM; MIC ([4]; ATCC2001, 24 h): 15.6 µM; MIC ([5]; ATCC13803, 24 h): 31.3 µM; inhibition at 10 µM ([6]; read-out: percent inhibition of the metabolic activity (ATP level) of C. albicans, compound 10 μM, 0.5 × 10^3 to 2.5 × 10^3 cells/mL, 37°C, 24 h): 100%
